# Results published in US20050159476A1, “Pharmaceutical composition for preventing or treating respiratory disease” (Chugai Seiyaku Kabushiki Kaisha, priority 2002, published 2005).
# Where two headings read alike, the source gives them in different places.
# Columns and labels:
# Format in all cases: cell-based
# [1] = test system: human A549 cells; assay: Protective effect against cell injury induced by oxidized LDL in human A549 cells (LDH leakage); details: for inhibition at 3 µM / inhibition at 30 µM: Homo sapiens, oxidized LDL 100 μg/mL, 24 hours, average ± standard error; for inhibition at 3 µM: 3 μmol/L test compound; for inhibition at 30 µM: 30 μmol/L test compound
# Protocol: (§1) Oxidized LDL was prepared by maintaining 1 mg/mL of rabbit LDL at 37° C for 24 hours in PBS (-) containing 10 μmol/L CUSO4.
# Human A549 cells used in this test are available under accession number ATCC-CCL-185 and have the properties of type II alveolar epithelial cells (Lieber M, Smith B, Szakal A, Nelson-Rees W, Todaro G., A continuous tumor-cell line from a human lung carcinoma with properties of type II alveolar epithelial cells. Int J Cancer Jan. 15, 1976; 17(1):62-70).
# (§2) These cells were dispersed in F12K medium containing 10% FBS and plated on a 24-well plate at 2.5×10^4 cells/500 μL/well. These cells were incubated at 37° C. for 18 hours and then the medium was replaced by F12K medium containing 2% FBS. At this time, 2.5 μL of a solution or a suspension of each test compound in ethanol was added at the concentrations of the test compound of 3 μmol/L and 30 μmol/L in each well.
# (§3) After incubation at 37° C. for 6 hours, 50 μL of a suspension of oxidized LDL was added per well at the concentration of oxidized LDL of 100 μg/mL in each well.
# (§4) After incubation at 37° C. for 24 hours, 200 μL of the supernatant was collected from each well and the amount of lactate dehydrogenase (LDH) leaked from cells was determined by the SFBC method.
# (§5) Further test was carried out in the same manner as the above test with the exception that each test compound was added to the cell culture after incubation for 6 hours following medium replacement and immediately before oxidized LDL was added thereto rather than when the medium was replaced with F12K medium containing 2% FBS.
# (§6) Higher LDH levels in the supernatant indicate that greater cell injury is induced by oxidized LDL. Separately, one experiment was carried out using a well in the same manner as the above test with the exception that no test compound was added to the well. The level of LDH in this well was defined as 0% cell protection. In addition, other experiment was carried out using another well without adding either test compound or oxidized LDL but with adding saline instead. The level of LDH in this well was defined as 100% cell protection. These levels of LDH were used for calculating cell protection of each test compound used in the above test.
# Probucol and α-tocopherol were tested for comparison with the compounds of the present invention. In this test, the test compounds were added to the cell culture after incubation for 6 hours following medium replacement and immediately before oxidized LDL was added.
# [2] = test system: normal human bronchial/tracheal epithelial cells (NHBE w/RA); assay: Protective effect against cell injury induced by oxidized LDL in normal human bronchial/tracheal epithelial cells (LDH leakage); details: 24 h, average ± standard error; for inhibition at 3 µM: 3 μmol/L test compound; for inhibition at 30 µM: 30 μmol/L test compound
# Protocol: as §1, §2, §3, §4, §5, §6
# This test example was carried out in a similar manner to test example 1 except that human A549 cells were replaced with normal human bronchial/tracheal epithelial cells (NHBE w/RA: BioWhittaker Co.), cell culture medium was changed from F12K medium containing 10% FBS to BEGM® medium, and the replacement of medium was not made.
# [3] = test system: human A549 cells; assay: Protective effect against cell injury induced by t-butyl hydroperoxide in human A549 cells; details: t-BuOOH in saline in each well
# [4] = read-out: % Cell protection in the case where oxidized LDL was added 6 hrs after adding test compound
# [5] = read-out: % Cell protection in the case where oxidized LDL was added immediately after adding test compound
compound,measurement,setting,value
"CCCCCC1(CCCCC)Cc2c(cc(C(C)(C)C)c(O)c2C(C)(C)C)O1 [Compound 3, 4,6-di-t-butyl-2,2-di-n-pentyl-5-hydroxy-2,3-dihydrobenzofuran]",inhibition at 3 µM,[1]; [4],18.7 ± 2.1%
same,inhibition at 3 µM,[1]; [5],14.3 ± 2.3%
same,inhibition at 30 µM,[1]; [4],95 ± 2.5%
same,inhibition at 30 µM,[1]; [5],85.4 ± 1.6%
same,% cell protection as a function of test compound concentration (FIG. 1),"[1]; test compound added immediately before oxidized LDL, Test Example 2",begins to sharply increase when the concentration of Compound 3 exceeds about 10 μmol/L
same,inhibition at 3 µM,[2]; [4],49.8 ± 6.4%
same,inhibition at 3 µM,[2]; [5],9.8 ± 3.3%
same,inhibition at 30 µM,[2]; [4],70.8 ± 2%
same,inhibition at 30 µM,[2]; [5],66.2 ± 2.6%
same,inhibition of cell injury induced by t-butyl hydroperoxide (FIG. 2),[3],inhibits cell injury
